The values below come from ChEMBL document CHEMBL3769391, “Identification of a new cyathane diterpene that induces mitochondrial and autophagy-dependent apoptosis and shows a potent in vivo anti-colorectal cancer activity” (Eur J Med Chem, 2016).

Active and inactive are the calls of the source. The calls are words filed in the database; no cut-off is given here.

The test system of series [1] is HCT-116. The series can be described thus: Induction of apoptosis in human HCT116 cells assessed as caspase activation at 5 uM after 24 hrs by CaspACEFITC-VAD-FMK staining based flow cytometry (reference value: 7.72%). It is filed as functional.
Series [2] relates to HCT-116. The series can be described thus: Induction of apoptosis in human HCT116 cells assessed as caspase activation at 5 uM after 36 hrs by CaspACEFITC-VAD-FMK staining based flow cytometry (reference value: 7.72%). It is filed as functional. For orientation: Flow cytometry measures light scatter and fluorescence of single cells or particles in a stream.
Series [3] concerns HCT-116. The series can be described thus: Induction of apoptosis in human HCT116 cells assessed as increase in total cellular ROS level after 6 hrs by H2DCFDA staining based flow cytometry. In kind it is functional, cell-based.
For series [4], the system named is HCT-116. As to the kind of experiment: Induction of apoptosis in human HCT116 cells assessed as increase in mitochondrial superoxide radical after 16 hrs by MitoSOX Red staining based flow cytometry. In kind it is functional, cell-based.
Series [5] has as its system HCT-116. The series can be described thus: Induction of apoptosis in human HCT116 cells assessed as early apoptotic cells at 5 uM after 24 hrs by Annexin V-FITC/propidium iodide staining based flow cytometry in presence of DTT (reference value: 2.2%). It is filed as functional.
For series [6], the system named is HCT-116. The series can be described thus: Induction of apoptosis in human HCT116 cells assessed as necrotic cells at 5 uM after 24 hrs by Annexin V-FITC/propidium iodide staining based flow cytometry (reference value: 0.44%). In kind it is functional.
Series [7] concerns HCT-116. The series can be described thus: Induction of apoptosis in human HCT116 cells assessed as necrotic cells at 5 uM after 24 hrs by Annexin V-FITC/propidium iodide staining based flow cytometry in presence of DTT (reference value: 0.44%). It is filed as functional.
Series [8] relates to HCT-116. As to the kind of experiment: Induction of apoptosis in human HCT116 cells assessed as depolarization of mitochondrial inner transmembrane potential after 24 hrs by TMRE staining based flow cytometry. It is filed as functional, cell-based.
Series [9] relates to HCT-116. As to the kind of experiment: Induction of apoptosis in Bax deficient human HCT116 cells assessed as early apoptotic cells at 10 uM after 24 hrs by Annexin V-FITC/propidium iodide staining based flow cytometry (reference value: 1.13%). In kind it is functional.
Series [10] deals with HCT-116. The series can be described thus: Induction of apoptosis in Bax deficient human HCT116 cells assessed as early apoptotic cells at 15 uM after 24 hrs by Annexin V-FITC/propidium iodide staining based flow cytometry in presence of DTT (reference value: 0.85%). In kind it is functional.
The test system of series [11] is HCT-116. The series can be described thus: Induction of chloroquine-induced autophagic flux in human HCT116 cells assessed as increase in LC3-2 level at 5 uM by Western blot analysis. It is filed as functional, cell-based.
Series [12] deals with HCT-116. As to the kind of experiment: Induction of apoptosis in human HCT116 cells assessed as ATG5 cleavage at 5 uM after 4 to 12 hrs by Western blot analysis. It is filed as functional, cell-based. Background: Immunoblotting shows a protein as a band on a membrane.
For series [13], the system named is Mus musculus. As to the kind of experiment: Toxicity in immune deficient nude BALB/c mouse xenografted with human HCT116 cells assessed as changes in body weight at 5 and 10 mg/kg, ip administered every other day for 2 weeks measured during compound dosing. In kind it is organism-based, HCT-116. The following applies: in vivo, 336 h. (A xenograft is tissue or cells of one species grown in another, often human tumour cells in immunodeficient mice.)

Series [14] concerns Mus musculus. As to the kind of experiment: Toxicity in immune deficient nude BALB/c mouse xenografted with Bax deficient human HCT116 cells assessed as changes in body weight at 5 and 10 mg/kg, ip administered every other day for 2 weeks measured during compound dosing. In kind it is organism-based, HCT-116. Particulars: in vivo, 336 h.
The subject of series [15] is Mus musculus. As to the kind of experiment: Toxicity in immune deficient nude BALB/c mouse xenografted with human HCT116 cells assessed as discomfort behavioral changes at 5 and 10 mg/kg, ip administered every other day for 2 weeks measured during compound dosing. It is filed as organism-based, HCT-116. Particulars: in vivo, 336 h.

In the case of `CO[C@@H]1C(C=O)=CC[C@@H]2C3=C(C(C)C)CC[C@]3(C)CC[C@@]2(C)[C@H]1O`, the Activity is 70.08% in the series with HCT-116 [1]; 93.96% in the series on HCT-116 [2]; “Dose-dependent effect” in the series with HCT-116 [3]; “Dose-dependent effect” in the series on HCT-116 [4]; 5.58% in the series on HCT-116 [5]; 5.93% in the series with HCT-116 [6]. In addition, the Activity is 0.33% with HCT-116 [7]; “Dose-dependent effect” in the series on HCT-116 [8]; 44.04% with HCT-116 [9]; 2.67% in the series on HCT-116 [10]; “Non-toxic” in the series on Mus musculus [13]; “Non-toxic” with Mus musculus [14]. Also, the Activity entry with Mus musculus [15] was “Non-toxic”. The result in the series on HCT-116 [11] and in the series with HCT-116 [12] was Active.
